Consider 25 molecules from US12172975B2, “1H-indazole carboxamides as receptor-interacting protein kinase 1 inhibitors (RIPK1)” (BRISTOL-MYERS SQUIBB COMPANY, priority 2018, dated 2024).

Where a name gives a salt, the structure may show the parent alone. Read-outs that look alike come from different tables or passages of the source.

For assay [1], the target named is His-GST-TVMV-hRIPK1 (1-324) (Homo sapiens (Human), UniProt Q13546). Kind of assay: RIPK1 HTRF Binding Assay. Particulars: read-out: RIPK1 HTRF (IC50); FRET probe displacement, 1 h at rt. On the technique in general: Time-resolved FRET reads energy transfer from a long-lived donor to a nearby acceptor.
Chain of His-GST-TVMV-hRIPK1 (1-324) (Q13546 1-324): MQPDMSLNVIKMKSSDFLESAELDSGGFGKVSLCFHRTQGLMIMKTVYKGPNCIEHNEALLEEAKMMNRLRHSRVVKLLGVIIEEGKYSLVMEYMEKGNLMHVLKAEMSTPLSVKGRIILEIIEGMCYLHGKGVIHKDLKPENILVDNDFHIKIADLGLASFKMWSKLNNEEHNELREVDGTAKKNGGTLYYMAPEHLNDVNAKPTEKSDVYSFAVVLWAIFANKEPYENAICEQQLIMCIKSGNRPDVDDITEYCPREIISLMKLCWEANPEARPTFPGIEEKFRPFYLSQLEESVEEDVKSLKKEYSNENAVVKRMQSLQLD
For assay [2], the system named is MLKL phosphorylation in HT29-L23 human colorectal adenocarcinoma cells. Kind of assay: MLKL Phosphorylation High-Content Assay. The conditions noted are these: 6 h, necroptosis induced with TNFα, SMAC mimetic and Z-VAD, read-out: pMLKL (IC50). It counts as cell-based. In outline:
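Following fixation and staining for phospho-S358 MLKL with Hoechst nuclear counterstain, high-content imaging quantified phosphorylation in HT29-L23 cells challenged 6 h with TNFα 35 ng/mL, SMAC mimetic 700 nM and Z-VAD 140 nM. Nec-1s at 6.25 μM defined full inhibition; 4-parameter logistic fits yielded IC50 and Ymax.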

As a reminder, the IC50 is the midpoint of a concentration-inhibition curve.

Regarding `CNC(=O)c1n[nH]c2cc(-c3cnc(OC)c(C(=O)NCC(C)(C)C(=O)NCc4ccc(F)cc4)c3)ccc12` [Example 91, 6-{5-[(2-{[(4-fluorophenyl)-methyl]carbamoyl}-2,2-dimethylethyl)carbamoyl]-6-methoxypyridin-3-yl}-N-methyl-1H-indazole-3-carboxamide], the IC50 was 1.8 nM in assay [1] and 16 nM in assay [2] (Homo sapiens).
Regarding `CNC(=O)c1n[nH]c2cc(-c3cnc(OC)c(C(=O)NCc4ccccc4OC(C)C)c3)ccc12` [Example 93, 6-[6-methoxy-5-({[2-(propan-2-yloxy)phenyl]methyl}-carbamoyl)pyridin-3-yl]-N-methyl-1H-indazole-3-carbox-amide], the values for the IC50 in assay [1] and in assay [2] were 1.3 nM and 8.3 nM, respectively.
The like results for `CNC(=O)c1n[nH]c2cc(-c3cnc(OC)c(C(=O)NCc4cccnc4OC)c3)ccc12` [Example 94, 6-(6-methoxy-5-{[(2-methoxy-pyridin-3-yl)methyl]carbam-oyl}pyridin-3-yl)-N-methyl-1H-indazole-3-carboxamide, TFA] were, in that order, 9.9 nM and 96 nM.
With `CNC(=O)c1n[nH]c2cc(-c3cnc(OC)c(C(=O)NC45CC6CC(C4)CC(c4ccccc4)(C6)C5)c3)ccc12` [Example 95, 6-{6-methoxy-5-[(3-phenyl-adamantan-1-yl)carbamoyl]-pyridin-3-yl}-N-methyl-1H-indazole-3-carboxamide], the IC50 in assay [1] was 17 nM; in assay [2] (Homo sapiens) it was 9.3 nM.
With `CNC(=O)c1n[nH]c2cc(-c3cnc(OC)c(C(=O)NCC4CCCN4C(=O)C(C)(C)C(F)(F)F)c3)ccc12` (centres unmarked) [Example 96, 6-[6-methoxy-5-({[1-(3,3,3-trifIuoro-2,2-dimethylpropan-oyl)pyrrolidin-2-yl]methyl}-carbamoyl)pyridin-3-yl]-N-methyl-1H-indazole-3-carboxamide], the IC50 in assay [1] amounted to 34 nM; in assay [2], 4.6 nM.
Taken in the same sequence, the figures for `CNC(=O)c1n[nH]c2cc(-c3cnc(OC)c(C(=O)NC4CCCC(C(=O)N5CCOCC5)C4)c3)ccc12` (centres unmarked) [Example 98, 6-(6-methoxy-5-{[3-(morpho-line-4-carbonyl)cyclohexyl]-carbamoyl}pyridin-3-yl)-N-methyl-1H-indazole-3-carbox-amide] were 26 nM and 46 nM.
With `CNC(=O)c1n[nH]c2cc(-c3cnc(OC)c(C(=O)NC4CCCC(C(=O)N5CCCC5)C4)c3)ccc12` (centres unmarked) [Example 99, 6-(6-methoxy-5-{[3-(pyrrol-idine-1-carbonyl)cyclohexyl]-carbamoyl}pyridin-3-yl)-N-methyl-1H-indazole-3-carbox-amide], the IC50 came to 11 nM in assay [1] and 14 nM in assay [2].
In the case of `CCCN(C)C(=O)C1CCCC(NC(=O)c2cc(-c3ccc4c(C(=O)NC)n[nH]c4c3)cnc2OC)C1` (centres unmarked) [Example 100, 6-[6-methoxy-5-({3-[methyl-(propyl)carbamoyl]cyclo-hexyl}carbamoyl)pyridin-3-yl]-N-methyl-1H-indazole-3-carboxamide], the IC50 stood at 18 nM in assay [1] and 63 nM in assay [2] (Homo sapiens).
`CNC(=O)c1n[nH]c2cc(-c3cnc(OC)c(C(=O)NC(C)c4cccc(C(F)(F)F)c4)c3)ccc12` (centres unmarked) [Example 101, 6-[6-methoxy-5-({1-[3-(tri-fluoromethyl)phenyl]ethyl}-carbamoyl)pyridin-3-yl]-N-methyl-1H-indazole-3-carbox-amide]: the IC50 worked out at 4.5 nM in assay [1] and 19 nM in assay [2].
Taken in the same sequence, the figures for `CNC(=O)c1n[nH]c2cc(-c3cnc(OC)c(C(=O)NCc4ccc(F)c(C(F)(F)F)c4)c3)ccc12` [Example 104, 6-[5-({[4-fluoro-3-(trifluoro-methyl)phenyl]methyl}carbam-oyl)-6-methoxypyridin-3-yl]-N-methyl-1H-indazole-3-carboxamide] were 40 nM and 93 nM.
For the molecule `CNC(=O)c1n[nH]c2cc(-c3cnc(OC)c(C(=O)NCc4cccnc4OCC4CCC4)c3)ccc12` [Example 112, 6-[5-({[2-(cyclobutylmeth-oxy)pyridin-3-yl]methyl}-carbamoyl)-6-methoxypyridin-3-yl]-N-methyl-1H-indazole-3-carboxamide], the IC50 in assay [1] was found to be 4.8 nM; in assay [2] (Homo sapiens), 7.6 nM.
Consider `CNC(=O)c1n[nH]c2cc(-c3cnc(OC)c(C(=O)NCc4ccccc4OC4CCCCC4)c3)ccc12` [Example 113, 6-[5-({[2-(cyclohexyloxy)-phenyl]methyl}carbamoyl)-6-methoxypyridin-3-yl]-N-methyl-1H-indazole-3-carbox-amide], for which the values for the IC50 in assay [1] and in assay [2] were 27 nM and 9.7 nM, respectively.
`CNC(=O)c1n[nH]c2cc(-c3cnc(OC)c(C(=O)NCc4cccc(OCC5CCC5)c4)c3)ccc12` [Example 115, 6-[5-({[3-(cyclobutylmeth-oxy)phenyl]methyl}carbam-oyl)-6-methoxypyridin-3-yl]-N-methyl-1H-indazole-3-carboxamide]: the IC50 in assay [1] was found to be 0.04 nM; in assay [2], 100 nM.
In the case of `CNC(=O)c1n[nH]c2cc(-c3cnc(OC)c(C(=O)NCC4CCCC4(C)C)c3)ccc12` (centres unmarked) [Example 116, 6-(5-{[(2,2-dimethylcyclo-pentyl)methyl]carbamoyl}-6-methoxypyridin-3-yl)-N-methyl-1H-indazole-3-carbox-amide], the results for the IC50 in assay [1] and in assay [2] were 9.6 nM and 54 nM, respectively.
Taken in the same sequence, the figures for `CNC(=O)c1n[nH]c2cc(-c3cnc(OC)c(C(=O)NCc4ncccc4OCC4CCC4)c3)ccc12` [Example 117, 6-[5-({[3-(cyclobutylmethoxy)-pyridin-2-yl]methyl}carbam-oyl)-6-methoxypyridin-3-yl]-N-methyl-1H-indazole-3-carboxamide, TFA] were 2.6 nM and 11 nM.
With `CNC(=O)c1n[nH]c2cc(-c3cnc(OC)c(C(=O)NC4CCCC(Oc5ccccc5)C4)c3)ccc12` (centres unmarked) [Example 118, 6-{6-methoxy-5-[(3-phenoxy-cyclohexyl)carbamoyl]pyridin-3-yl}-N-methyl-1H-indazole-3-carboxamide], the IC50 in assay [1] stood at 6.2 nM; in assay [2] (Homo sapiens), 2.6 nM.
In the case of `CNC(=O)c1n[nH]c2cc(-c3cnc(OC)c(C(=O)NCc4cccc(OC(F)(F)F)c4F)c3)ccc12` [Example 119, 6-[5-({[2-fluoro-3-(trifluoro-methoxy)phenyl]methyl}-carbamoyl)-6-methoxy-pyridin-3-yl]-N-methyl-1H-indazole-3-carboxamide], the IC50 in assay [1] was determined as 33 nM; in assay [2] (Homo sapiens) it was 110 nM.
`CNC(=O)c1n[nH]c2cc(-c3cnc(OC)c(C(=O)NC4CCCC(C(=O)N(C)C)C4)c3)ccc12` (centres unmarked) [Example 120, 6-(5-{[3-(dimethylcarbam-oyl)cyclohexyl]carbamoyl}-6-methoxypyridin-3-yl)-N-methyl-1H-indazole-3-carbox-amide]: the IC50 in assay [1] is 11 nM; in assay [2], 100 nM.
The like results for `CCN(CC)C(=O)C1CCCC(NC(=O)c2cc(-c3ccc4c(C(=O)NC)n[nH]c4c3)cnc2OC)C1` (centres unmarked) [Example 121, 6-(5-{[3-(diethylcarbamoyl)-cyclohexyl]carbamoyl}-6-methoxypyridin-3-yl)-N-methyl-1H-indazole-3-carbox-amide] were, in that order, 6.1 nM and 7.5 nM.
Taken in the same sequence, the figures for `CCN(C)C(=O)C1CCCC(NC(=O)c2cc(-c3ccc4c(C(=O)NC)n[nH]c4c3)cnc2OC)C1` (centres unmarked) [Example 122, 6-[5-({3-[ethyl(methyl)carbam-oyl]cyclohexyl}carbamoyl)-6-methoxypyridin-3-yl]-N-methyl-1H-indazole-3-carboxamide] were 12 nM and 120 nM.
Regarding `CCCN(CC1CC1)C(=O)C1CCCC(NC(=O)c2cc(-c3ccc4c(C(=O)NC)n[nH]c4c3)cnc2OC)C1` (centres unmarked) [Example 123, 6-[5-({3-[(cyclopropylmethyl)-(propyl)carbamoyl]cyclohexyl}-carbamoyl)-6-methoxypyridin-3-yl]-N-methyl-1H-indazole-3-carboxamide], the IC50 was found to be 21 nM in assay [1] and 75 nM in assay [2] (Homo sapiens).
Taken in the same sequence, the figures for `CCN(CC1CCC1)C(=O)C1CCCC(NC(=O)c2cc(-c3ccc4c(C(=O)NC)n[nH]c4c3)cnc2OC)C1` (centres unmarked) [Example 124, 6-[5-({3-[(cyclobutylmethyl)-(ethyl)carbamoyl]cyclohexyl}-carbamoyl)-6-methoxypyridin-3-yl]-N-methyl-1H-indazole-3-carboxamide] were 26 nM and 83 nM.
In the case of `CNC(=O)c1n[nH]c2cc(-c3cnc(OC)c(C(=O)NC4CCCC(C(=O)N(C)C5CC5)C4)c3)ccc12` (centres unmarked) [Example 125, 6-[5-({3-[cyclopropyl(methyl)-carbamoyl]cyclohexyl}carbam-oyl)-6-methoxypyridin-3-yl]-N-methyl-1H-indazole-3-carbox-amide], the results for the IC50 in assay [1] and in assay [2] were 12 nM and 8.8 nM, respectively.
Turning to `CNC(=O)c1n[nH]c2cc(-c3cnc(OC)c(C(=O)NCc4cc(F)cc(F)c4OC(C)C)c3)ccc12` [Example 126, 6-[5-({[3,5-difluoro-2-(propan-2-yloxy)phenyl]methyl}-carbamoyl)-6-methoxypyridin-3-yl]-N-methyl-1H-indazole-3-carboxamide], the IC50 amounted to 4.2 nM in assay [1] and 6.9 nM in assay [2] (Homo sapiens).
Taken in the same sequence, the figures for `CNC(=O)c1n[nH]c2cc(-c3cnc(OC)c(C(=O)NCc4c(F)cccc4OC(C)C)c3)ccc12` [Example 127, 6-[5-({[2-fluoro-6-(propan-2-yloxy)phenyl]methyl}-carbamoyl)-6-methoxy-pyridin-3-yl]-N-methyl-1H-indazole-3-carboxamide] were 2.3 nM and 3.7 nM.
